Where two headings read alike, the source gives them in different places. Where no end group is shown, it is not given here.
Columns and labels:
[1] = rabbit, in vivo
Description: All animal procedures were approved by the Institutional Animal Care and Use Committee at The University of Texas Health Science Center at Tyler (IACUC protocols 499,616,617). Studies used female, pathogen‐free New Zealand white rabbits (3.0–3.6 kg; average age 18 weeks) from Charles River Laboratories (Wilmington, MA). These studies required a total of 107 rabbits, 43 for the model of TCN‐induced pleural injury and 64 for the model of empyema. […] Briefly, a 3 ml mixture of TCN in ascorbic acid (20 mg/ml TCN (T3258, Sigma‐Aldrich), 2.5 mg/ml ascorbic acid (A7506, Sigma‐Aldrich) and lidocaine (1 mg/ml, UTHCT Compounding Pharmacy), was delivered by intrapleural injection. A model of acute empyema in rabbits was induced as described previously (Komissarov et al., 2016). Briefly, 1–5 × 10^8 cfu of S. pneumoniae (D39 strain, National Collection of Type Cultures, Salisbury UK) in 3 ml of 0.5% brain‐heart infusion agar (BD 238400, BD Diagnostic Systems) was delivered by intrapleural injection. Clavomox (10 mg/kg, subcutaneous, daily for 1–3 days as clinically indicated by Attending Veterinarian) (10000485, Zoetis) was started at 28–30 h post‐infection. Accumulation of pleural fluid and fibrin deposition was monitored using ultrasonography; detailed in the ultrasonography subsection. After 48 or 72 h for TCN‐induced pleural injury and empyema, respectively, intrapleural therapeutics were administered depending on treatment group via an 18‐gauge catheter, which was flushed with 0.5 ml PBS. In all experiments, samples of pleural fluids (0.5 ml) from each rabbit were collected prior to and at 10, 20, and 40 min after PAI‐1‐TFT and processed for later analysis (Florova et al., 2015; Karandashova et al., 2013; Komissarov et al., 2013, 2016). […] Animals were monitored carefully for signs of distress, pain, and worsening clinical status. […]
The residual DSP in pleural fluid samples was determined using LC MS/MS. […]

[2] = rabbit, in vivo; remark: listed apart in the source
Description: (§1) FIGURE 7 Low dose PAI‐1‐TFT induces no intrapleural bleeding. Pleural fluids from rabbits with TCN‐induced (a) or S. pneumoniae‐induced (b) pleural injury were collected at necropsy and red blood cells (RBC) were counted using a Beckman Coulter. (a) Animals with TCN‐induced pleural injury were treated (from left to right) with vehicle control (n = 6); 62.5 µg/kg of scuPA alone (n = 6); and with 2.0 mg/kg DSP (n = 6); 72.5 µg/kg of sctPA alone (n = 5), and with 2.0 mg/kg DSP (n = 6). (b) Animals with infectious pleural injury were treated (from left to right) with vehicle control (n = 6); 0.25 mg/kg of sctPA alone (n = 5), and with 8.0 mg/kg DSP (n = 6), 0.5 mg/kg of sctPA alone (n = 6), and with 8.0 mg/kg DSP (n = 6), 0.5 mg/kg of scuPA alone (n = 9), and with 8.0 mg/kg DSP (n = 3). […] Data are presented as box and whisker plots (all points shown)

[3] = Intrapleural bleeding, pleural fluid RBC counts, empyema; format: in vivo, rabbit
Description: as §1

in vivo = conditions: rabbit
Description: All animal procedures were approved by the Institutional Animal Care and Use Committee at The University of Texas Health Science Center at Tyler (IACUC protocols 499,616,617). Studies used female, pathogen‐free New Zealand white rabbits (3.0–3.6 kg; average age 18 weeks) from Charles River Laboratories (Wilmington, MA). These studies required a total of 107 rabbits, 43 for the model of TCN‐induced pleural injury and 64 for the model of empyema. […] Briefly, a 3 ml mixture of TCN in ascorbic acid (20 mg/ml TCN (T3258, Sigma‐Aldrich), 2.5 mg/ml ascorbic acid (A7506, Sigma‐Aldrich) and lidocaine (1 mg/ml, UTHCT Compounding Pharmacy), was delivered by intrapleural injection. A model of acute empyema in rabbits was induced as described previously (Komissarov et al., 2016). Briefly, 1–5 × 10^8 cfu of S. pneumoniae (D39 strain, National Collection of Type Cultures, Salisbury UK) in 3 ml of 0.5% brain‐heart infusion agar (BD 238400, BD Diagnostic Systems) was delivered by intrapleural injection. Clavomox (10 mg/kg, subcutaneous, daily for 1–3 days as clinically indicated by Attending Veterinarian) (10000485, Zoetis) was started at 28–30 h post‐infection. Accumulation of pleural fluid and fibrin deposition was monitored using ultrasonography; detailed in the ultrasonography subsection. After 48 or 72 h for TCN‐induced pleural injury and empyema, respectively, intrapleural therapeutics were administered depending on treatment group via an 18‐gauge catheter, which was flushed with 0.5 ml PBS. In all experiments, samples of pleural fluids (0.5 ml) from each rabbit were collected prior to and at 10, 20, and 40 min after PAI‐1‐TFT and processed for later analysis (Florova et al., 2015; Karandashova et al., 2013; Komissarov et al., 2013, 2016). Anesthesia, postoperative pain medication, and animal care were provided as reported previously (Florova et al., 2015; Karandashova et al., 2013; Komissarov et al., 2013, 2016). with details provided in the supplement. Animals were monitored carefully for signs of distress, pain, and worsening clinical status. Euthanasia was accomplished using intravenous injection of 1 ml of commercial euthanasia solution (sodium pentobarbital 390 mg/ml and phenytoin 50 mg/ml) followed by exsanguination.
The residual DSP in pleural fluid samples was determined using LC MS/MS. Briefly, collected samples were extracted using acetonitrile, cleaned with Microcon centrifugal filters (MRCPRT010, MilliporeSigma) and injected via autosampler onto a Pinnacle DB C8 Column (9413332, Restek) reverse‐phase column operated at a flow rate of 200 μl/min. A gradient elution method using solvent A (99% H2O, 1% acetonitrile, 0.05% TFA) for 5 min, a gradient to 100% solvent B (1% H2O, 99% acetonitrile, 0.05% TFA) over 25 min, and 100% solvent B for 2 min was employed. […]

PAI‐1 = conditions: alanine mutations of positively charged residues in the 37-loop; ref Benedict et al., 1995; Florova et al., 2018; Keyt et al., 1994; cited from earlier work
Text: Plasminogen Activator Inhibitor‐1 (PAI‐1) is a mechanism‐based inhibitor of tissue type (tPA) and urokinase (uPA) plasminogen activators (PAs) (Carrell et al., 1991; Chaillan‐Huntington et al., 1997; Mourik et al., 1984) used for fibrinolytic therapy. Levels of PAI‐1 increase by up to three orders of magnitude in empyema (pleural sepsis), and organizing pleural injury (Aleman et al., 2003; Chung et al., 2005; Philip‐Joet et al., 1995), limiting endogenous and exogenous plasminogen activating activity that could help prevent or treat uncontrolled fibrin deposition induced by inflammation. Previ ...

| Substance | Apparent first order rate constant of DSP clearance (kclr), slower phase [1] [min⁻¹] | DSP in pleural fluid at 24 h [1] | Presence of DSP in pleural fluid after treatment [1] | Bleeding accompanying PAI-1-TFT [2] | Bleeding accompanying PAI-1-TFT ([3]; DSP with plasminogen activator, empyema) | Pleural fluid RBC counts ([3]; any dose of DSP alone or in combination with plasminogen activator, pleural fluid at necropsy, Beckman Coulter) | level at 40 min (in vivo; female, New Zealand white, 8 mg/kg) [µg/mL] | Apparent first order rate constant of DSP clearance (kclr), slower phase (in vivo) [min⁻¹] | DSP in pleural fluid at 24 h (in vivo) | Presence of DSP in pleural fluid after treatment (in vivo) | Rate of reaction with PAI-1 relative to the WT enzymes (PAI‐1) |
| --- | --- | --- | --- | --- | --- | --- | --- | --- | --- | --- | --- |
| EEIIMD [DSP, EEIIMD] | 0.03 to 0.07 | No DSP was detected | over 40 min | no apparent local or systemic bleeding | no apparent local or systemic bleeding | no statistical difference | > 300 | 0.03 to 0.07 | No DSP was detected | over 40 min | – |
| tenecteplase | – | – | – | – | – | – | – | – | – | – | almost two orders of magnitude slower |
